Measured values as given in ChEMBL document CHEMBL1201862, “PubChem BioAssay data set” (2004).
“And” between values parts separate entries of the source, which are not always exact repeats. Equal entries are not always repeated.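 The compound was tested at five concentrations on cells cultured in 96-well plates, with a 48-hour exposure period. GI50 = concentration required for 50% inhibition of growth.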 The source made the active and inactive calls. No stated cut-off is given here; in the data, active = GI50 up to about 1.1 µM and inactive = higher.

Experiments:
Experiment in all cases: growth of human tumour cells (NCI), 48 h
786-0 = system: 786-0
A498 = system: A498
A549 = system: A549
ACHN = system: ACHN
BT-549 = system: BT-549
CAKI-1 = system: CAKI-1
CCRF-CEM = system: CCRF-CEM
DU-145 = system: DU-145
EKVX = system: EKVX
HCC 2998 = system: HCC 2998
HCT-116 = system: HCT-116
HCT-15 = system: HCT-15
HL-60 = system: HL-60
HOP-62 = system: HOP-62
HOP-92 = system: HOP-92
HT-29 = system: HT-29
Hs-578T = system: Hs-578T
KM12 = system: KM12
LOX IMVI = system: LOX IMVI
M14 = system: M14
MCF7 = system: MCF7
NCI-H226 = system: NCI-H226
NCI-H23 = system: NCI-H23
NCI-H460 = system: NCI-H460
NCI/ADR-RES = system: NCI/ADR-RES
OVCAR-4 = system: OVCAR-4
OVCAR-5 = system: OVCAR-5
OVCAR-8 = system: OVCAR-8
PC-3 = system: PC-3
RXF 393 = system: RXF 393
SF-268 = system: SF-268
SF-539 = system: SF-539
SK-OV-3 = system: SK-OV-3
SN12C = system: SN12C
SNB-75 = system: SNB-75
SW-620 = system: SW-620
T47D = system: T47D
TK-10 = system: TK-10
UACC-62 = system: UACC-62
UO-31 = system: UO-31
COLO 205 = system: COLO 205
IGROV-1 = system: IGROV-1
K562 = system: K562
MDA-MB-231 = system: MDA-MB-231
MDA-MB-435 = system: MDA-MB-435
MDA-N = system: MDA-N
MOLT-4 = system: MOLT-4
Malme-3M = system: Malme-3M
NCI-H522 = system: NCI-H522
OVCAR-3 = system: OVCAR-3
RPMI-8226 = system: RPMI-8226
SF-295 = system: SF-295
SK-MEL-28 = system: SK-MEL-28
SK-MEL-2 = system: SK-MEL-2
SNB-19 = system: SNB-19
SR = system: SR
U-251 = system: U-251
UACC-257 = system: UACC-257

How did the GI50 (786-0) turn out when COc1ccc(-c2c(C#N)c(O)n(C3OC(COC(C)=O)C(OC(C)=O)C(OC(C)=O)C3OC(C)=O)c(=S)c2C#N)cc1 (stereo not given) was run?
Its GI50 is 31.7 µM (inactive) and 34 µM (inactive).

And the GI50 (A498)?
Its GI50 is 30.3 µM (inactive) and 32.1 µM (inactive).

And the GI50 (A549)?
The GI50 was > 100 µM (inactive).

What about the GI50 (ACHN) of the same compound?
The GI50 was 48.6 µM (inactive) and 54.8 µM (inactive).

And the GI50 (BT-549)?
The GI50 was 32.7 µM (inactive) and 24.8 µM (inactive).

What about the GI50 (CAKI-1) of the same compound?
The GI50 was 31.4 µM (inactive) and 19.1 µM (inactive).

What about the GI50 (CCRF-CEM) of the same compound?
The GI50 was > 100 µM (inactive) and 67.8 µM (inactive).

What about the GI50 (DU-145) of the same compound?
The GI50 was 84.5 µM (inactive).

What about the GI50 (EKVX) of the same compound?
The GI50 was 25.9 µM (inactive) and 37.3 µM (inactive).

What about the GI50 (HCC 2998) of the same compound?
The GI50 was 26.5 µM (inactive) and 25.1 µM (inactive).

And the GI50 (HCT-116)?
Its GI50 is 64 µM (inactive) and 67.3 µM (inactive).

What about the GI50 (HCT-15) of the same compound?
The GI50 was greater than 100 µM.

What about the GI50 (HL-60) of the same compound?
Its GI50 is 22.2 µM (inactive) and 24.5 µM (inactive).

And the GI50 (HOP-62)?
The GI50 was 31.6 µM (inactive) and 27 µM (inactive).

What about the GI50 (HOP-92) of the same compound?
Its GI50 is 19 µM (inactive) and 17.8 µM (inactive).

What about the GI50 (HT-29) of the same compound?
The GI50 was > 100 µM (inactive).

And the GI50 (Hs-578T)?
The GI50 was 30.7 µM (inactive) and 32.1 µM (inactive).

What about the GI50 (KM12) of the same compound?
Its GI50 is 65.9 µM (inactive).

What about the GI50 (LOX IMVI) of the same compound?
Its GI50 is 93.1 µM (inactive) and 51.5 µM (inactive).

And the GI50 (M14)?
The GI50 was > 100 µM (inactive).

And the GI50 (MCF7)?
The GI50 was > 100 µM (inactive).

What about the GI50 (NCI-H226) of the same compound?
The GI50 was > 100 µM (inactive) and 72.8 µM (inactive).

And the GI50 (NCI-H23)?
Its GI50 is 97.5 µM (inactive) and 79.4 µM (inactive).

What about the GI50 (NCI-H460) of the same compound?
The GI50 was 68.7 µM (inactive) and 37.6 µM (inactive).

What about the GI50 (NCI/ADR-RES) of the same compound?
Its GI50 is > 100 µM (inactive).

What about the GI50 (OVCAR-4) of the same compound?
The GI50 was 29.1 µM (inactive) and 43.7 µM (inactive).

And the GI50 (OVCAR-5)?
Its GI50 is > 100 µM (inactive).

And the GI50 (OVCAR-8)?
Its GI50 is 28.4 µM (inactive) and 36.6 µM (inactive).

What about the GI50 (PC-3) of the same compound?
The GI50 was 44.3 µM (inactive) and 66.5 µM (inactive).

And the GI50 (RXF 393)?
Its GI50 is 32.1 µM (inactive) and 26 µM (inactive).

And the GI50 (SF-268)?
The GI50 was 25.1 µM (inactive) and 27.9 µM (inactive).

What about the GI50 (SF-539) of the same compound?
Its GI50 is 55.2 µM (inactive) and 36.1 µM (inactive).

What about the GI50 (SK-OV-3) of the same compound?
The GI50 was 33.9 µM (inactive) and 28.6 µM (inactive).

And the GI50 (SN12C)?
Its GI50 is 94.8 µM (inactive) and 67 µM (inactive).

What about the GI50 (SNB-75) of the same compound?
Its GI50 is 26.5 µM (inactive) and 18.9 µM (inactive).

What about the GI50 (SW-620) of the same compound?
The GI50 was > 100 µM (inactive).

What about the GI50 (T47D) of the same compound?
Its GI50 is 21.5 µM (inactive) and 30.3 µM (inactive).

And the GI50 (TK-10)?
Its GI50 is 31.6 µM (inactive) and 36.8 µM (inactive).

What about the GI50 (UACC-62) of the same compound?
Its GI50 is 26 µM (inactive) and 25.7 µM (inactive).

And the GI50 (UO-31)?
Its GI50 is 33.4 µM (inactive) and 26.1 µM (inactive).

How did the GI50 (786-0) turn out when Nc1c(C(=O)c2ccc(Cl)c(Cl)c2)[nH]c(NCc2ccccc2)c1C(=S)Nc1ccccc1 was run?
Its GI50 is 11.2 µM (inactive).

And the GI50 (A498)?
The GI50 was 15.3 µM (inactive).

And the GI50 (A549)?
The GI50 was 5.15 µM (inactive).

And the GI50 (ACHN)?
The GI50 was 12.2 µM (inactive).

And the GI50 (BT-549)?
The GI50 was 15.8 µM (inactive).

And the GI50 (CAKI-1)?
The GI50 was 15.3 µM (inactive).

What about the GI50 (COLO 205) of the same compound?
The GI50 was 1.78 µM (inactive).

What about the GI50 (DU-145) of the same compound?
Its GI50 is 15.3 µM (inactive).

What about the GI50 (EKVX) of the same compound?
Its GI50 is 14.7 µM (inactive).

And the GI50 (HCC 2998)?
The GI50 was 1.74 µM (inactive).

And the GI50 (HCT-116)?
The GI50 was 3.48 µM (inactive).

What about the GI50 (HCT-15) of the same compound?
Its GI50 is 2.51 µM.

And the GI50 (HL-60)?
The GI50 was 19.1 µM (inactive).

What about the GI50 (HOP-62) of the same compound?
Its GI50 is 17.3 µM (inactive).

And the GI50 (HT-29)?
The GI50 was 3.23 µM (inactive).

What about the GI50 (IGROV-1) of the same compound?
Its GI50 is 11.8 µM (inactive).

What about the GI50 (K562) of the same compound?
The GI50 was 3.32 µM (inactive).

And the GI50 (KM12)?
Its GI50 is 3.18 µM (inactive).

What about the GI50 (LOX IMVI) of the same compound?
Its GI50 is 2.21 µM (inactive).

And the GI50 (M14)?
The GI50 was 3.56 µM (inactive).

And the GI50 (MCF7)?
Its GI50 is 2.47 µM (inactive).

And the GI50 (MDA-MB-231)?
The GI50 was 4.73 µM (inactive).

And the GI50 (MDA-MB-435)?
The GI50 was 5.08 µM (inactive).

What about the GI50 (MDA-N) of the same compound?
Its GI50 is 3.64 µM (inactive).

And the GI50 (MOLT-4)?
The GI50 was 3.31 µM (inactive).

What about the GI50 (Malme-3M) of the same compound?
Its GI50 is 3.13 µM (inactive).

And the GI50 (NCI-H226)?
Its GI50 is 11.3 µM (inactive).

What about the GI50 (NCI-H23) of the same compound?
Its GI50 is 18.2 µM (inactive).

And the GI50 (NCI-H460)?
Its GI50 is 5.42 µM (inactive).

And the GI50 (NCI-H522)?
Its GI50 is 4.83 µM (inactive).

What about the GI50 (NCI/ADR-RES) of the same compound?
The GI50 was 2.08 µM (inactive).

What about the GI50 (OVCAR-3) of the same compound?
Its GI50 is 17.5 µM (inactive).

What about the GI50 (OVCAR-4) of the same compound?
Its GI50 is 3.81 µM (inactive).

What about the GI50 (OVCAR-5) of the same compound?
The GI50 was 13.6 µM (inactive).

What about the GI50 (OVCAR-8) of the same compound?
The GI50 was 14.7 µM (inactive).

And the GI50 (PC-3)?
The GI50 was 13.8 µM (inactive).

And the GI50 (RPMI-8226)?
The GI50 was 2.65 µM (inactive).

What about the GI50 (RXF 393) of the same compound?
Its GI50 is 10.4 µM (inactive).

What about the GI50 (SF-268) of the same compound?
The GI50 was 14.1 µM (inactive).

And the GI50 (SF-295)?
Its GI50 is 3.48 µM (inactive).

What about the GI50 (SF-539) of the same compound?
The GI50 was 2.68 µM (inactive).

What about the GI50 (SK-MEL-28) of the same compound?
The GI50 was 4.63 µM (inactive).

And the GI50 (SK-MEL-2)?
The GI50 was 12.4 µM (inactive).

And the GI50 (SK-OV-3)?
Its GI50 is 17.2 µM (inactive).

What about the GI50 (SN12C) of the same compound?
The GI50 was 14.9 µM (inactive).

And the GI50 (SNB-19)?
The GI50 was 18.5 µM (inactive).

What about the GI50 (SNB-75) of the same compound?
The GI50 was 10 µM (inactive).

And the GI50 (SR)?
The GI50 was 3.1 µM (inactive).

What about the GI50 (SW-620) of the same compound?
Its GI50 is 3.22 µM (inactive).

What about the GI50 (T47D) of the same compound?
The GI50 was 16.5 µM (inactive).

And the GI50 (TK-10)?
Its GI50 is 17.8 µM (inactive).

What about the GI50 (U-251) of the same compound?
The GI50 was 3.96 µM (inactive).

And the GI50 (UACC-257)?
Its GI50 is 13.8 µM (inactive).

And the GI50 (UACC-62)?
The GI50 was 14.3 µM (inactive).

And the GI50 (UO-31)?
Its GI50 is 6.7 µM (inactive).
